pIC50: −log10 of the molar value.
Legend:
[1] = Toxicity in CB17-SCID mouse xenografted with human Granta-519 cells assessed as change in body weight at 50 mg/kg,po once daily for 3 weeks administrated 5 days weekly in presence of niraparib; assay type: organism-based; conditions: in vivo, 504 h
[2] = target: Cyclin-dependent kinase 2 (Homo sapiens, UniProt P24941); assay: Inhibition of human CDK2
[3] = Apparent permeability across apical to basolateral side in human Caco-2 cells; assay type: ADME, cell-based
[4] = target: ATR/ATRIP (Homo sapiens, UniProt Q13535); assay: Inhibition of ATR/ATRIP (unknown origin) using 5-FAM-AK-17 as substrate preincubated with compound for 10 mins followed by ATP addition and measured after 240 mins by mobility shift assay; assay type: protein-complex assay
[5] = target: DNA-dependent protein kinase catalytic subunit (Homo sapiens, UniProt P78527); assay: Inhibition of human DNA-PK
[6] = target: CYP2C9 (Homo sapiens, UniProt P11712); assay: Time dependent inhibition of CYP2C9 (unknown origin) at 10 uM relative to control; assay type: ADME; conditions: read-out: TDI
[7] = target: Interleukin-1 receptor-associated kinase 4 (Homo sapiens, UniProt Q9NWZ3); assay: Inhibition of human IRAK4
Sequence of Interleukin-1 receptor-associated kinase 4 (Q9NWZ3 whole entry): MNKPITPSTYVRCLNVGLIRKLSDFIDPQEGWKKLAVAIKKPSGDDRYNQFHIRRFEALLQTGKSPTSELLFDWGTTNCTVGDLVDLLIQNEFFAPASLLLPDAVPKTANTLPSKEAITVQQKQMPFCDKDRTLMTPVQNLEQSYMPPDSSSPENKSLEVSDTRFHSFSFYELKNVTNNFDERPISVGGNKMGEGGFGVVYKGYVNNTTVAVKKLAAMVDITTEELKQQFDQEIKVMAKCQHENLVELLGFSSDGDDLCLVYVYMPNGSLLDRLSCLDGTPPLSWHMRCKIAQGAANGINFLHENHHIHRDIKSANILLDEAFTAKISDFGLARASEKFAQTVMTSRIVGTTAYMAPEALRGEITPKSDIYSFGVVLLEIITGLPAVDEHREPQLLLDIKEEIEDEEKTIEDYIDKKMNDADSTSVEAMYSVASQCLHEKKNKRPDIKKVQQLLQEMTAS

[8] = target: CYP1A2 (Homo sapiens, UniProt P05177); assay: Time dependent inhibition of CYP1A2 (unknown origin) at 10 uM relative to control; assay type: ADME; conditions: read-out: TDI
Sequence of CYP1A2 (P05177 whole entry): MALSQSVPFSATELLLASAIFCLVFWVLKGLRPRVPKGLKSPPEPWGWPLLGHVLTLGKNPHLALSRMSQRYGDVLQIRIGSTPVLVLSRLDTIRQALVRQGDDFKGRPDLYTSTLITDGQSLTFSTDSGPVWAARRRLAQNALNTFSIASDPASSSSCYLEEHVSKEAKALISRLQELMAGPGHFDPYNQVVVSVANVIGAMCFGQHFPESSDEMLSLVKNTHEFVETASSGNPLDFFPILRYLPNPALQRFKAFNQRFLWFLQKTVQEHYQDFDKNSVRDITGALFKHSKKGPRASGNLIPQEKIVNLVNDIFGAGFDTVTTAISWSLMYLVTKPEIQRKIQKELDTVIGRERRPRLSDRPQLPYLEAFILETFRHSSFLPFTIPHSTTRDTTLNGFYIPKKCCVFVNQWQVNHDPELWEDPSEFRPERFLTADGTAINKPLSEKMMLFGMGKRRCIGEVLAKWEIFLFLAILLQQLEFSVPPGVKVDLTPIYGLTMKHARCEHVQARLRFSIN

[9] = target: Serine/threonine-protein kinase 17B (Homo sapiens, UniProt O94768); assay: Inhibition of human DRAK2
[10] = target: AMPK alpha2/beta1/gamma1 (Homo sapiens, UniProt P54619+P54646+Q9Y478); assay: Inhibition of human AMPK alpha2/beta1/gamma1; assay type: protein-complex assay
Sequence of AMPK alpha2/beta1/gamma1 (P54646 whole entry): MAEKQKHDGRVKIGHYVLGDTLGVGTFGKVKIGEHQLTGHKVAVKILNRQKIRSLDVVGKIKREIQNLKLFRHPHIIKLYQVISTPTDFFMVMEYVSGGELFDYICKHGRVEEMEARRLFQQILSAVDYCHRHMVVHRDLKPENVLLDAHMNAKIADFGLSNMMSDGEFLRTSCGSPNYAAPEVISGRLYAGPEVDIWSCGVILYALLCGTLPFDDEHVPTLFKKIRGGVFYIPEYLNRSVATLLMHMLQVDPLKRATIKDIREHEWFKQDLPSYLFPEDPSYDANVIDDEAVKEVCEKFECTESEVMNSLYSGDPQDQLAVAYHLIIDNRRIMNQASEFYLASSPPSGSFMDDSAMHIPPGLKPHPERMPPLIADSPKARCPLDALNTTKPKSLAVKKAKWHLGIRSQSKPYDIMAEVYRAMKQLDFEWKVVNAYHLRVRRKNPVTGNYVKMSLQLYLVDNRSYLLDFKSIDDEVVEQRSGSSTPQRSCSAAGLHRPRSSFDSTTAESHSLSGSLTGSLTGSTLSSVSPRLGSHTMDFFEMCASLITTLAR
Sequence of AMPK alpha2/beta1/gamma1 (P54619 whole entry): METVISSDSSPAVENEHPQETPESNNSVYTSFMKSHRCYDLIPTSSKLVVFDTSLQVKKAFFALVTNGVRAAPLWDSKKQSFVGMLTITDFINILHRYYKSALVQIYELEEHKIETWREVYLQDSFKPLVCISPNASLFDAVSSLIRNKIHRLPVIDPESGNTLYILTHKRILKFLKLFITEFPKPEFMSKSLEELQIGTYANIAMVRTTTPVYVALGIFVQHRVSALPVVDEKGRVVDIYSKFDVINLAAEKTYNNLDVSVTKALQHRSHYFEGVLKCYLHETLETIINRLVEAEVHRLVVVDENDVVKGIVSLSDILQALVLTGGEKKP
Sequence of AMPK alpha2/beta1/gamma1 (Q9Y478 whole entry): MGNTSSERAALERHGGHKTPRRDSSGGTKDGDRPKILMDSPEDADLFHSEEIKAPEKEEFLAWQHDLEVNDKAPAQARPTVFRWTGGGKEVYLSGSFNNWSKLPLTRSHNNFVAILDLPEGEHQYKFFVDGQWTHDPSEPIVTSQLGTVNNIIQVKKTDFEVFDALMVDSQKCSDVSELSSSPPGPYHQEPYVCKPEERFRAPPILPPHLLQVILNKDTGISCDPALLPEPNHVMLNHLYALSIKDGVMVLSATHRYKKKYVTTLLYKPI

[11] = Toxicity in BALB/c mouse xenografted with human HT-29 cells assessed as change in body weight at 50 mg/kg,po once daily for 4 weeks in presence of 3 Gy of ionizing radiation; assay type: organism-based; conditions: in vivo, 672 h
[12] = target: Serine/threonine-protein kinase mTOR (Homo sapiens, UniProt P42345); assay: Inhibition of human mTOR
[13] = Lipophilicity, logD of compound at pH 7.4; assay type: physicochemical; conditions: buffer
[14] = target: Tyrosine-protein kinase Lck (Homo sapiens, UniProt P06239); assay: Inhibition of human LCK
[15] = Apparent permeability across basolateral to apical side in dog MDCK-MDR1 cells; assay type: ADME, cell-based, Canis lupus familiaris
[16] = system: Granta-519; assay: Induction of apoptosis in human Granta-519 cells assessed as viable cells at 1000 nM incubated for 48 hrs by Annexin-V-FITC/propidium iodide staining based flow cytometry (reference value: 92.7 %); assay type: functional; conditions: read-out: Activity
[17] = Toxicity in BALB/c mouse xenografted with human A2780 cells assessed as change in body weight at 50 mg/kg,po bid for 3 weeks administrated 5 days weekly; assay type: organism-based; conditions: in vivo, 504 h
[18] = target: CYP2D6 (Homo sapiens, UniProt P10635); assay: Time dependent inhibition of CYP2D6 (unknown origin) at 10 uM relative to control; assay type: ADME; conditions: read-out: TDI
[19] = target: CYP3A4 (Homo sapiens, UniProt P08684); assay: Time dependent inhibition of CYP3A4 (unknown origin) at 10 uM relative to control; assay type: ADME; conditions: read-out: TDI
Sequence of CYP3A4 (P08684 whole entry): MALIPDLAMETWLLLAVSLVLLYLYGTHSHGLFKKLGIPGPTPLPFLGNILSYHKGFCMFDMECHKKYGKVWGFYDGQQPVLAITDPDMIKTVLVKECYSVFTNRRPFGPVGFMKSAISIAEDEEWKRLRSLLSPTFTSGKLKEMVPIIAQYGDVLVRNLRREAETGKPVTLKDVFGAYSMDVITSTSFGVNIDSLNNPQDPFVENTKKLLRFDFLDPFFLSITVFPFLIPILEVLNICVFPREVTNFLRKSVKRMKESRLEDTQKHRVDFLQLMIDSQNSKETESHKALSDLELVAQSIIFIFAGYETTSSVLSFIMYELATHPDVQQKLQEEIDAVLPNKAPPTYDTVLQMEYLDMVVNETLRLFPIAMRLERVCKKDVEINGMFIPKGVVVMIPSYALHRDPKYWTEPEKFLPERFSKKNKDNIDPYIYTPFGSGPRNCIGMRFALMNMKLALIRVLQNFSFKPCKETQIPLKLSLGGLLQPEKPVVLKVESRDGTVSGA

[20] = AUClast in ICR mouse at 50 mg/kg,po measured upto 24 hrs by LC-MS/MS analysis; assay type: ADME, organism-based; conditions: in vivo
[21] = system: Granta-519; assay: Induction of apoptosis in human Granta-519 cells assessed as viable cells at 500 nM incubated for 48 hrs by Annexin-V-FITC/propidium iodide staining based flow cytometry (reference value: 92.7 %); assay type: functional; conditions: read-out: Activity
[22] = Apparent permeability across apical to basolateral side in dog MDCK-MDR1 cells; assay type: ADME, cell-based, Canis lupus familiaris
[23] = target: Tyrosine-protein kinase Lyn (Homo sapiens, UniProt P07948); assay: Inhibition of human LYN
Sequence of Tyrosine-protein kinase Lyn (P07948 whole entry): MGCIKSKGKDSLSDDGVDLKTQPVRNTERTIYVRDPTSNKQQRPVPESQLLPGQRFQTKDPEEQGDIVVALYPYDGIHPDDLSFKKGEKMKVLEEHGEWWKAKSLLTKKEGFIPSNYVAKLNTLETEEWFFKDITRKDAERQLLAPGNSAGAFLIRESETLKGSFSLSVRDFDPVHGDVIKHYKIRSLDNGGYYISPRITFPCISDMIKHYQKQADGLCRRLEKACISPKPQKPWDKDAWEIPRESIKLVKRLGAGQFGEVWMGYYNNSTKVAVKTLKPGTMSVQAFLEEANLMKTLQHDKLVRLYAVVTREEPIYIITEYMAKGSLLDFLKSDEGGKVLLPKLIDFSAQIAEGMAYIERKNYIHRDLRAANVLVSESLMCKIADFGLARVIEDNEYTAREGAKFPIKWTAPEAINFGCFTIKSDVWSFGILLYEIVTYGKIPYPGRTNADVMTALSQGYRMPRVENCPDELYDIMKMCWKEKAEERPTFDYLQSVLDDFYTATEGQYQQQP

[24] = system: Granta-519; assay: Induction of apoptosis in human Granta-519 cells assessed as viable cells at 2000 nM incubated for 48 hrs by Annexin-V-FITC/propidium iodide staining based flow cytometry (reference value: 92.7 %); assay type: functional; conditions: read-out: Activity
[25] = target: Tyrosine-protein kinase JAK1 (Homo sapiens, UniProt P23458); assay: Inhibition of human JAK1
[26] = target: Serine/threonine-protein kinase ATR (Homo sapiens, UniProt Q13535); assay: Inhibition of human ATR
[27] = Tmax in ICR mouse at 50 mg/kg,po measured upto 24 hrs by LC-MS/MS analysis; assay type: ADME, organism-based; conditions: in vivo
[28] = Apparent permeability across basolateral to apical side in human Caco-2 cells; assay type: ADME, cell-based
[29] = Half life in ICR mouse at 50 mg/kg,po measured upto 24 hrs by LC-MS/MS analysis; assay type: ADME, organism-based; conditions: in vivo
[30] = target: CYP2C19 (Homo sapiens, UniProt P33261); assay: Time dependent inhibition of CYP2C19 (unknown origin) at 10 uM relative to control; assay type: ADME; conditions: read-out: TDI
Sequence of CYP2C19 (P33261 whole entry): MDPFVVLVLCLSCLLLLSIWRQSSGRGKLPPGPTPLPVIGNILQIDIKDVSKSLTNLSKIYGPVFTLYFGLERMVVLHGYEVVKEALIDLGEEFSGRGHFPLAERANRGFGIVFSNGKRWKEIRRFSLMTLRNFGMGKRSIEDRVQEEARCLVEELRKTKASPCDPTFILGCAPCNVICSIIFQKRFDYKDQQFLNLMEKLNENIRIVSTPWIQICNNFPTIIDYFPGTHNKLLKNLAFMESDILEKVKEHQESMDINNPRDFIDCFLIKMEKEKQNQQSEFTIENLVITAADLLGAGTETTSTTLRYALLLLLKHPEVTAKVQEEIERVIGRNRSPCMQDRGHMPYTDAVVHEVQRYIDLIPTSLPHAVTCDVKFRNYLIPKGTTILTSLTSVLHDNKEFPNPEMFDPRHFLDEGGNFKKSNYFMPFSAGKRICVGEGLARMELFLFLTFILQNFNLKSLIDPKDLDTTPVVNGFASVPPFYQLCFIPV

[31] = Toxicity in BALB/c mouse xenografted with human CAPAN-1 cells assessed as change in body weight at 50 mg/kg,po once daily for 3 weeks administrated 4 days weekly in presence of gemcitabine; assay type: organism-based; conditions: in vivo, 504 h
[32] = Toxicity in BALB/c mouse xenografted with human PC-3 cells assessed as change in body weight at 50 mg/kg,po bid for 3 weeks administrated 5 days weekly; assay type: organism-based; conditions: in vivo, 504 h
[33] = target: Receptor-type tyrosine-protein kinase FLT3 (Homo sapiens, UniProt P36888); assay: Inhibition of human FLT3
[34] = AUCinfinity in ICR mouse at 50 mg/kg,po measured upto 24 hrs by LC-MS/MS analysis; assay type: ADME, organism-based; conditions: in vivo
[35] = target: NUAK family SNF1-like kinase 1 (Homo sapiens, UniProt O60285); assay: Inhibition of human ARK5
[36] = Cmax in ICR mouse at 50 mg/kg,po measured upto 24 hrs by LC-MS/MS analysis; assay type: ADME, organism-based; conditions: in vivo
[37] = target: Phosphatidylinositol 4,5-bisphosphate 3-kinase catalytic subunit alpha isoform (Homo sapiens, UniProt P42336); assay: Inhibition of human PI3Kalpha
[38] = target: Serine/threonine-protein kinase BRSK2 (Homo sapiens, UniProt Q8IWQ3); assay: Inhibition of human BRSK2
[39] = Acute toxicity in Beagle dog assessed as change in platelet count at 10 to 90 mg/kg,po once daily for 7 days; assay type: organism-based, Canis lupus familiaris; conditions: in vivo, 168 h, dose 10-90 mg/kg, time 7 day
[40] = Toxicity in CB17-SCID mouse xenografted with human Granta-519 cells assessed as change in body weight at 50 mg/kg,po bid for 3 weeks administrated 5 days weekly; assay type: organism-based; conditions: in vivo, 504 h
[41] = target: Aurora kinase B (Homo sapiens, UniProt Q96GD4); assay: Inhibition of human Aurora B
Sequence of Aurora kinase B (Q96GD4 whole entry): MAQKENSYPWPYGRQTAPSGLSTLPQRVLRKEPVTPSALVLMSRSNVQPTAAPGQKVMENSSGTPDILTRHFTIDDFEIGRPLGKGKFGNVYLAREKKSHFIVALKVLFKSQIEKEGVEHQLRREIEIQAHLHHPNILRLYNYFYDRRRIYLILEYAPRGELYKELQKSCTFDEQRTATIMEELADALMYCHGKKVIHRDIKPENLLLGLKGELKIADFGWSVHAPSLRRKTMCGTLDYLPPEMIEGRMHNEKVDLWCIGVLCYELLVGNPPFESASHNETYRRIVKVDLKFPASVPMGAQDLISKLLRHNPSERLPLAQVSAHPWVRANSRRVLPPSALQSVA

[42] = target: Serine-protein kinase ATM (Homo sapiens, UniProt Q13315); assay: Inhibition of human ATM
[43] = target: Tyrosine-protein kinase BTK (Homo sapiens, UniProt Q06187); assay: Inhibition of human BTK
[44] = Plasma protein binding in mouse; assay type: ADME, cell-free; conditions: read-out: PPB (converted)
[45] = Acute toxicity in Beagle dog assessed as change in serum creatinine level at 10 to 90 mg/kg,po once daily for 7 days; assay type: organism-based, Canis lupus familiaris; conditions: in vivo, 168 h, dose 10-90 mg/kg, time 7 day
[46] = Brain to plasma ratio in ICR mouse at 50 mg/kg,po measured upto 24 hrs by LC-MS/MS analysis; assay type: ADME, organism-based
[47] = Acute toxicity in Beagle dog assessed as change in body weight at 10 to 90 mg/kg,po once daily for 7 days; assay type: organism-based, Canis lupus familiaris; conditions: in vivo, 168 h, dose 10-90 mg/kg, time 7 day
[48] = target: Tyrosine-protein kinase Mer (Homo sapiens, UniProt Q12866); assay: Inhibition of human MER
Sequence of Tyrosine-protein kinase Mer (Q12866 whole entry): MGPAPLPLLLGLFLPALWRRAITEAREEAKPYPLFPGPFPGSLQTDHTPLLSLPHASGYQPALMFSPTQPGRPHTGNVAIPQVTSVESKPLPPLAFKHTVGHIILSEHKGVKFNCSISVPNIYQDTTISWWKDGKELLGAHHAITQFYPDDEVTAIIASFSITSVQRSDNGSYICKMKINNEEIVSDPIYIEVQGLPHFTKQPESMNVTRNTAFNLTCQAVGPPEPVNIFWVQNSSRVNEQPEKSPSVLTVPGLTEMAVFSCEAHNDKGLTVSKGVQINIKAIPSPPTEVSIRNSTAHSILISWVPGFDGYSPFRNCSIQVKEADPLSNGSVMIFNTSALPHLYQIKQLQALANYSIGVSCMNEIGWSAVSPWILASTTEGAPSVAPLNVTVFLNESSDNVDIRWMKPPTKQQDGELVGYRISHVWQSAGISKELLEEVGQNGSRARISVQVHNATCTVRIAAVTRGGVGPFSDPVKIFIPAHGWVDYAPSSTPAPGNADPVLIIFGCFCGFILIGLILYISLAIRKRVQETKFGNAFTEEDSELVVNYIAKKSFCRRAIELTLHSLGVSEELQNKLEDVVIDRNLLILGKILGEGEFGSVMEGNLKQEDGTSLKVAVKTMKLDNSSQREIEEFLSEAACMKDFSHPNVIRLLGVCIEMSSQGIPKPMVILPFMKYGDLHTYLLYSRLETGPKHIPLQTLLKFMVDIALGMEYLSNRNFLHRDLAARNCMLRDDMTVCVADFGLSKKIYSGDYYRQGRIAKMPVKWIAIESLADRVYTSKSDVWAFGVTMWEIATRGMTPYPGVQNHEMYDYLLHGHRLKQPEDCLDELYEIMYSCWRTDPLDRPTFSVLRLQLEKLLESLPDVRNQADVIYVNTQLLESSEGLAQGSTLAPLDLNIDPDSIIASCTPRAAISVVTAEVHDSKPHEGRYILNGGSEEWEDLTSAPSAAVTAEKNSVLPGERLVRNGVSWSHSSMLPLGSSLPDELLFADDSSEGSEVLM

## C[C@@H]1COCCN1c1nc(-c2ccnc3[nH]ccc23)nc2c1ccn2S(C)(=O)=O
[1]
  Activity: Toxic
[2]
  pIC50: < 5.00
[3]
  Papp A→B: 39.6 ×10⁻⁶ cm/s
[4]
  pIC50: 8.80
[5]
  pIC50: 6.92
[6]
  inhibition at 10 µM: 7.09%
[7]
  pIC50: < 5.00
[8]
  inhibition at 10 µM: 37.5%
[9]
  pIC50: < 5.00
[10]
  pIC50: < 5.00
[11]
  Activity: Toxic
[12]
  pIC50: 7.34
[13]
  logD: 3.61
[14]
  pIC50: 5.59
[15]
  Papp B→A: 51.2 ×10⁻⁶ cm/s
[16]
  viability at 1 µM: 81.3%
[17]
  Activity: Toxic
[18]
  inhibition at 10 µM: 2%
[19]
  inhibition at 10 µM: 21.2%
[20]
  AUC(0-t) at 24 h: 140 µg·h/mL
[21]
  viability at 0.5 µM: 89.6%
[22]
  Papp A→B: 41.9 ×10⁻⁶ cm/s
[23]
  pIC50: < 5.00
[24]
  viability at 2 µM: 76.9%
[25]
  pIC50: < 5.00
[26]
  pIC50: 8.60
[27]
  Tmax: 1 h
[28]
  Papp B→A: 32.5 ×10⁻⁶ cm/s
[29]
  half-life: 137 min
[30]
  inhibition at 10 µM: 12.1%
[31]
  Activity: Toxic
[32]
  Activity: Toxic
[33]
  pIC50: < 5.00
[34]
  AUC(0-inf): 140 µg·h/mL
[35]
  pIC50: 5.14
[36]
  Cmax: 19800 ng/mL
[37]
  pIC50: 5.69
[38]
  pIC50: < 5.00
[39]
  Activity: Toxic
[40]
  Activity: Toxic
[41]
  pIC50: < 5.00
[42]
  pIC50: 5.49
[43]
  pIC50: < 5.00
[44]
  fraction unbound: 0.005
[45]
  Activity: Toxic
[46]
  BPR: 31%
[47]
  Activity: Non-Toxic
[48]
  pIC50: < 5.00

Source: ChEMBL document CHEMBL5523766 (J Med Chem, 2024)
